Test results from patent US20130209366A1, “Glutathione-Lanthionine Compounds and Methods Related Thereto” (OKLAHOMA MEDICAL RESEARCH FOUNDATION, priority 2010, published 2013).
Marks after values point to notes of the source that are not given here.

Key:
SOD1G93A mutant mice = assay: Onset of paralysis and survival in SOD1G93A mouse model of familial ALS; assay type: in vivo; settings: for age at death (d) mean / onset of paralysis (d) mean: 5 days/week from 90d
Procedure: Additional studies to explore effects of LKE in vivo, as a pharmacological candidate were conducted in a murine model for the motoneuron disease amyotrophic lateral sclerosis (ALS). In a first effort to assess LKE effects against a model of spontaneous neurodegeneration, SOD1G93A mutant mice modeling familial ALS [27-28] were treated with intraperitoneal (i.p.) injections of 100 mg/kg/d LKE in saline vehicle, from 90d throughout the remaining mouse lifespan. LKE is relevant to test in this mouse because the SOD1G93A mouse experiences robust neuroinflammation concomitant with TNFα-driven microglial activation, oxidative stress, and significant progressive distal axonopathy, all of which might be expected to be mitigated by LKE based on the ester's observed effects in cell culture. Mouse motor function was assessed as previously described using a standard rotarod test, at sequential 10d intervals (FIG. 6). Specific groups of mice were treated with LKE in saline or saline vehicle only. […] Overall survival was increased by LKE based on logrank analysis (Table I).
(§1) Mice were injected with synthetic gLan in saline at 50-200 mg/kg/d, five days per week (Monday-Friday) beginning at 90d of age. Mice were assessed at baseline and every 10d for motor functional ability using the rotarod task as described previously.
Motor function dropped off rapidly amongst all groups at ages >110 d (FIG. 8). As in the case of LKE treatment, chronic intraperitoneal gLan at 100-200 mg/kg/dose tended to increase the age at which onset-of-paralysis was observed (based on a leg-clinch test) and the mean age of death of the SOD1G93A mice (Table II). When motor performance curves were interpolated to estimate the age at which mice lost an average 50% of baseline motor function, the 100 mg/kg/dose gLan treatment group reached this clinical endpoint approximately 18d later than the vehicle-treated group (FIG. 8).

SOD1G93A mice = assay: Rotarod motor function in SOD1G93A mice; assay type: in vivo, mouse
Procedure: FIG. 8. […] Mice were treated with daily intraperitoneal injections of gLan, at the indicated dose, 5 days/week beginning at 90 d, and motor performance was evaluated by rotarod task as described in the examples.
Additional studies to explore effects of LKE in vivo, as a pharmacological candidate were conducted in a murine model for the motoneuron disease amyotrophic lateral sclerosis (ALS). In a first effort to assess LKE effects against a model of spontaneous neurodegeneration, SOD1G93A mutant mice modeling familial ALS [27-28] were treated with intraperitoneal (i.p.) injections of 100 mg/kg/d LKE in saline vehicle, from 90d throughout the remaining mouse lifespan. LKE is relevant to test in this mouse because the SOD1G93A mouse experiences robust neuroinflammation concomitant with TNFα-driven microglial activation, oxidative stress, and significant progressive distal axonopathy, all of which might be expected to be mitigated by LKE based on the ester's observed effects in cell culture. Mouse motor function was assessed as previously described using a standard rotarod test, at sequential 10d intervals (FIG. 6). Specific groups of mice were treated with LKE in saline or saline vehicle only.
as §1

[1] = system: NSC-34 motor neuron-like cells; settings: NSC-34 cells; cited from earlier work
NSC-34 cells = settings: cited from earlier work
[2] = system: primary dissociated chick dorsal root ganglia (DRG) cultures; assay: Neurite length in primary dissociated chick dorsal root ganglia cultures; assay type: cell-based; settings: 100 μM, treated at 2-3 DIV, 24 h
Procedure: FIG. 5. LK-5-ethyl ester (LKE) promotes neurite extension in primary, dissociated chick dorsal root ganglia cell cultures. Neurons were treated with LKE or saline vehicle for 24 h from DIV2-3 and quantitatively assessed for neurite morphometry as described in the text.
Cell culture studies were performed to assess LKE effects on neuritigenesis in primary dissociated chick dorsal root ganglia (DRG) cultures prepared essentially as described by Margiotta and Howard. Cultures were treated with LKE at 2-3 days in vitro (DIV), and neuron morphometry was quantified from bright field micrographs by a blinded observer using Metamorph® software (Molecular Devices, Sunnyvale Calif. USA).

[3] = system: TNFα or LPS-treated microglia and macrophages; settings: cited from earlier work
HT-4 neurons = settings: cited from earlier work
syntaptosomal membranes = settings: cited from earlier work
[4] = 100 mg/kg/d i.p. in saline from 90d, N = 15

Structure (SMILES): CCOC(=O)C1CSCC(C(=O)O)=N1 (centres unmarked) [LKE, LK-5-ethyl ester]
- overall survival (SOD1G93A mutant mice; 100 mg/kg/d i.p. from 90d, logrank analysis): increased
- maximum age at death (SOD1G93A mutant mice; [4]): 152 days
- median age at death (d) (SOD1G93A mutant mice; [4]): 139† d
- minimum age at death (SOD1G93A mutant mice; [4]): 124 days
- age of frank paralysis (SOD1G93A mutant mice; 100 mg/kg/d i.p. in saline from 90d, mean ± SEM, N = 15): 121.6 ± 2.5 days
- progression of clinical motoneuron disease (SOD1G93A mice; 100 mg/kg/d i.p. from 90d, rotarod and leg-splay test): significantly slowed
- protection from toxicity of hydrogen peroxide (H2O2) [1]: protected
- protection from toxicity of microglia-conditioned medium [1]: protected
- growth factor-stimulated outgrowth of neurites (NSC-34 cells): promoted
- mean neurite length of dissociated DRG neurons [2]: significantly increased
- nitric oxide synthesis [3]: suppressed
- protection against toxicity of high-dose glutamate (HT-4 neurons): protected

Structure (SMILES): O=C(O)C1=NC(C(=O)O)CSC1 (centres unmarked) [LK, 2H-1,4-thiazine-5,6-dihydro-3,5-dicarboxylic acid]
- Kd (syntaptosomal membranes; saturable, reversible with cold LK, read-out: Kd of [35S]LK binding to synaptosomal membranes): 58 nM
- nitric oxide synthesis [3]: suppressed
- protection against toxicity of high-dose glutamate (HT-4 neurons): protected

Structure (SMILES): NC(CSC[C@H](NC(=O)CC[C@H](N)C(=O)O)C(=O)NCC(=O)O)C(=O)O (some centres unmarked) [gLan, γGlu-Cys(S-Ala)-Gly]
- age at death (d) mean (SOD1G93A mutant mice; gLan 50 mg/kg daily i.p.): 126.7 days
- onset of paralysis (d) mean (SOD1G93A mutant mice; gLan 50 mg/kg daily i.p.): 111.6 days
- age at death (d) mean (SOD1G93A mutant mice; gLan 100 mg/kg daily i.p.): 138.3 days
- onset of paralysis (d) mean (SOD1G93A mutant mice; gLan 100 mg/kg daily i.p.): 123.8 days
- age at death (d) mean (SOD1G93A mutant mice; gLan 200 mg/kg daily i.p.): 133.1 days
- onset of paralysis (d) mean (SOD1G93A mutant mice; gLan 200 mg/kg daily i.p.): 116.7 days
- delay versus vehicle of the age at which mice lost an average 50% of baseline motor function (SOD1G93A mice; 100 mg/kg/dose, interpolated from motor performance curves): approximately 18 d
- motor function (rotarod) (SOD1G93A mice; 50-200 mg/kg/d, up to 110d or 120d, 100 mg/kg optimum, p<0.01 repeated measures ANOVA): dose-dependently improved
- average rotarod performance at 100d and 110d versus 90d baseline (SOD1G93A mice; 100-200 mg/kg/d): improved above the 90d baseline value
- motor function relative to saline treated control animals (SOD1G93A mice; 100-200 mg/kg/d, ages <120d): twice

Structure (SMILES): O=C(O)C1CSCC(C(=O)O)N1 (centres unmarked) [reduced LK, thiomorpholine dicarboxylic acid]
- displacement of [35S]LK (syntaptosomal membranes): could not displace
